# Results reported in patent publication US20260374756A1, “HETEROCYCLIC COMPOUNDS AS INHIBITORS OF MONOACYLGLYCEROL LIPASE (MAGL)” (Hoffmann-La Roche Inc., priority 2022, published 2026).
# Target: T1, hMAGL (Homo sapiens, UniProt Q99685)
# T1 sequence (Q99685 1-303): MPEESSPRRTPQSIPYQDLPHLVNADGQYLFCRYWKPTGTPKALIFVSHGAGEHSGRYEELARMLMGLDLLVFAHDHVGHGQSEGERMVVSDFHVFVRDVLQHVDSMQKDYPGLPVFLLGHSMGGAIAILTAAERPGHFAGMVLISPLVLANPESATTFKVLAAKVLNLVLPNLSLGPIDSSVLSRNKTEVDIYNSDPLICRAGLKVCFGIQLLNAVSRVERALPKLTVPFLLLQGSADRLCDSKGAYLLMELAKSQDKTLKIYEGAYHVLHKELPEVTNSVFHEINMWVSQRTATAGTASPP
# Experiment: 2-AG assay: MAGL inhibition, hydrolysis of 2-arachidonoylglycerol to arachidonic acid followed by mass spectrometry
# Assay type: biochemical
# Method in brief: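 MAGL preincubated with compound 15 min at RT in 50 mM Tris, 1 mM EDTA, 0.01% Tween-20, 2.5% DMSO; reaction started with 8 μM 2-AG (final), […], 30 min at RT. Quenched with acetonitrile containing d8-arachidonic acid; arachidonic acid quantified by RapidFire SPE-triple quad MS as arachidonic acid/d8 ratio.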
row,IC50,SMILES
1,735 nM,"O=C(N1CC2(CC(n3cnc(C4CC4)n3)C2)C1)N1CC2(CN(Cc3cn(CC(F)(F)F)nn3)C2)C1 [Example 108, [6-(3-cyclopropyl-1,2,4-triazol-1-yl)-2-azaspiro[3.3]heptan-2-yl]-[6-[[1-(2,2,2-trifluoroethyl)triazol-4-yl]methyl]-2,6-diazaspiro[3.3]heptan-2-yl]methanone]"
2,1380 nM,"O=C(N1CC2(CC(n3cnc(C(F)(F)F)n3)C2)C1)N1CC2(CN(Cc3cnn(CC(F)(F)F)c3)C2)C1 [Example 109, [6-[[1-(2,2,2-trifluoroethyl)pyrazol-4-yl]methyl]-2,6-diazaspiro[3.3]heptan-2-yl]-[6-[3-(trifluoromethyl)-1,2,4-triazol-1-yl]-2-azaspiro[3.3]heptan-2-yl]methanone]"
3,328 nM,"O=C(N1CC2(CC(n3cnc(C4CC4)n3)C2)C1)N1CC2(CN(Cc3cnn(CC(F)(F)F)c3)C2)C1 [Example 110, [6-(3-cyclopropyl-1,2,4-triazol-1-yl)-2-azaspiro[3.3]heptan-2-yl]-[6-[[1-(2,2,2-trifluoroethyl)pyrazol-4-yl]methyl]-2,6-diazaspiro[3.3]heptan-2-yl]methanone]"
4,3900 nM,"Cc1nn(CC(F)(F)F)cc1CN1CC2(C1)CN(C(=O)N1CC3(CC(n4cnc(C5(O)CC5)n4)C3)C1)C2 [Example 111, [6-[3-(1-hydroxycyclopropyl)-1,2,4-triazol-1-yl]-2-azaspiro[3.3]heptan-2-yl]-[6-[[3-methyl-1-(2,2,2-trifluoroethyl)pyrazol-4-yl]methyl]-2,6-diazaspiro[3.3]heptan-2-yl]methanone]"
5,640 nM,"Cc1nn(CC(F)(F)F)cc1CN1CC2(C1)CN(C(=O)N1CC3(CC(n4cnc(C(F)(F)F)n4)C3)C1)C2 [Example 112, [6-[[3-methyl-1-(2,2,2-trifluoroethyl)pyrazol-4-yl]methyl]-2,6-diazaspiro[3.3]heptan-2-yl]-[6-[3-(trifluoromethyl)-1,2,4-triazol-1-yl]-2-azaspiro[3.3]heptan-2-yl]methanone]"
6,133 nM,"Cc1nn(CC(F)(F)F)cc1CN1CC2(C1)CN(C(=O)N1CC3(CC(n4cnc(C5CC5)n4)C3)C1)C2 [Example 113, [6-(3-cyclopropyl-1,2,4-triazol-1-yl)-2-azaspiro[3.3]heptan-2-yl]-[6-[[3-methyl-1-(2,2,2-trifluoroethyl)pyrazol-4-yl]methyl]-2,6-diazaspiro[3.3]heptan-2-yl]methanone]"
7,311 nM,"Cc1c(CN2CC3(C2)CN(C(=O)N2CC4(CC(n5cnc(C(F)(F)F)n5)C4)C2)C3)cnn1CC(F)(F)F [Example 114, [6-[[5-methyl-1-(2,2,2-trifluoroethyl)pyrazol-4-yl]methyl]-2,6-diazaspiro[3.3]heptan-2-yl]-[6-[3-(trifluoromethyl)-1,2,4-triazol-1-yl]-2-azaspiro[3.3]heptan-2-yl]methanone]"
8,38.2 nM,"Cc1c(CN2CC3(C2)CN(C(=O)N2CC4(CC(n5cnc(C6CC6)n5)C4)C2)C3)cnn1CC(F)(F)F [Example 115, [6-(3-cyclopropyl-1,2,4-triazol-1-yl)-2-azaspiro[3.3]heptan-2-yl]-[6-[[5-methyl-1-(2,2,2-trifluoroethyl)pyrazol-4-yl]methyl]-2,6-diazaspiro[3.3]heptan-2-yl]methanone]"
9,161 nM,"O=C(N1CC2(CC(n3cnc(C(F)(F)F)n3)C2)C1)N1CC2(CN(Cc3ccn(C(F)(F)F)n3)C2)C1 [Example 116, [6-[[1-(trifluoromethyl)pyrazol-3-yl]methyl]-2,6-diazaspiro[3.3]heptan-2-yl]-[6-[3-(trifluoromethyl)-1,2,4-triazol-1-yl]-2-azaspiro[3.3]heptan-2-yl]methanone]"
10,16 nM,"O=C(N1CC2(CC(n3cnc(C4CC4)n3)C2)C1)N1CC2(CN(Cc3ccn(C(F)(F)F)n3)C2)C1 [Example 117, [6-(3-cyclopropyl-1,2,4-triazol-1-yl)-2-azaspiro[3.3]heptan-2-yl]-[6-[[1-(trifluoromethyl)pyrazol-3-yl]methyl]-2,6-diazaspiro[3.3]heptan-2-yl]methanone]"
11,0.12 nM,"O=C(N1CC2(CC(Cc3cn[nH]c3C(F)(F)F)C2)C1)N1CC2(CC(n3cnc(C(F)(F)F)n3)C2)C1 [Example 119, [6-[[5-(trifluoromethyl)-1H-pyrazol-4-yl]methyl]-2-azaspiro[3.3]heptan-2-yl]-[6-[3-(trifluoromethyl)-1,2,4-triazol-1-yl]-2-azaspiro[3.3]heptan-2-yl]methanone]"
12,0.81 nM,"O=C(N1CC2(CC(Cc3cn(CC(F)(F)F)nc3C(F)(F)F)C2)C1)N1CC2(CC(n3cnc(C4(O)CC4)n3)C2)C1 [Example 120, [6-[3-(1-hydroxycyclopropyl)-1,2,4-triazol-1-yl]-2-azaspiro[3.3]heptan-2-yl]-[6-[[1-(2,2,2-trifluoroethyl)-3-(trifluoromethyl)pyrazol-4-yl]methyl]-2-azaspiro[3.3]heptan-2-yl]methanone]"
13,0.35 nM,"O=C(N1CC2(CC(Cc3cn(CC(F)(F)F)nc3C(F)(F)F)C2)C1)N1CC2(CC(n3cnc(C(F)(F)F)n3)C2)C1 [Example 121, [6-[[1-(2,2,2-trifluoroethyl)-3-(trifluoromethyl)pyrazol-4-yl]methyl]-2-azaspiro[3.3]heptan-2-yl]-[6-[3-(trifluoromethyl)-1,2,4-triazol-1-yl]-2-azaspiro[3.3]heptan-2-yl]methanone]"
14,0.08 nM,O=C(N1CC2(CC(Cc3cn(CC(F)(F)F)nc3C(F)(F)F)C2)C1)N1CC2(CC(n3cnc(C4CC4)n3)C2)C1 [Example 122]
15,0.34 nM,"O=C(N1CC2(CC(Cc3cc(C4CC4)n[nH]3)C2)C1)N1CC2(CC(n3cnc(C(F)(F)F)n3)C2)C1 [Example 123, [6-[(3-cyclopropyl-1H-pyrazol-5-yl)methyl]-2-azaspiro[3.3]heptan-2-yl]-[6-[3-(trifluoromethyl)-1,2,4-triazol-1-yl]-2-azaspiro[3.3]heptan-2-yl]methanone]"
16,2.25 nM,"O=C(N1CC2(CC(Cc3cc(C4CC4)n[nH]3)C2)C1)N1CC2(CC(n3cnc(C4(O)CC4)n3)C2)C1 [Example 125, [6-[(3-cyclopropyl-1H-pyrazol-5-yl)methyl]-2-azaspiro[3.3]heptan-2-yl]-[6-[3-(1-hydroxycyclopropyl)-1,2,4-triazol-1-yl]-2-azaspiro[3.3]heptan-2-yl]methanone]"
17,0.78 nM,"O=C(N1CC2(CC(Cn3cnc(C(F)(F)F)n3)C2)C1)N1CC2(CC(c3cc(C4CC4)n[nH]3)C2)C1 [Example 126, [6-(3-cyclopropyl-1H-pyrazol-5-yl)-2-azaspiro[3.3]heptan-2-yl]-[6-[[3-(trifluoromethyl)-1,2,4-triazol-1-yl]methyl]-2-azaspiro[3.3]heptan-2-yl]methanone]"
18,1.06 nM,"O=C(N1CC2(CC(Cn3cnc(C(F)(F)F)n3)C2)C1)N1CC2(CC(n3cnc(C4CC4)n3)C2)C1 [Example 127, [6-(3-cyclopropyl-1,2,4-triazol-1-yl)-2-azaspiro[3.3]heptan-2-yl]-[6-[[3-(trifluoromethyl)-1,2,4-triazol-1-yl]methyl]-2-azaspiro[3.3]heptan-2-yl]methanone]"
19,9.98 nM,"O=C(N1CC2(CC(Cn3cnc(C(F)(F)F)n3)C2)C1)N1CC2(CC(n3cnc(C4(O)CC4)n3)C2)C1 [Example 128, [6-[3-(1-hydroxycyclopropyl)-1,2,4-triazol-1-yl]-2-azaspiro[3.3]heptan-2-yl]-[6-[[3-(trifluoromethyl)-1,2,4-triazol-1-yl]methyl]-2-azaspiro[3.3]heptan-2-yl]methanone]"
20,0.31 nM,"O=C(N1CC2(CC(Cc3n[nH]cc3C(F)(F)F)C2)C1)N1CC2(CC(n3cnc(C(F)(F)F)n3)C2)C1 [Example 129, [6-[[4-(trifluoromethyl)-1H-pyrazol-3-yl]methyl]-2-azaspiro[3.3]heptan-2-yl]-[6-[3-(trifluoromethyl)-1,2,4-triazol-1-yl]-2-azaspiro[3.3]heptan-2-yl]methanone]"
21,1.08 nM,"Cc1cc(C2CC2)n(CC2CC3(C2)CN(C(=O)N2CC4(CC(n5cnc(C(F)(F)F)n5)C4)C2)C3)n1 [Example 131, [6-[(5-cyclopropyl-3-methyl-pyrazol-1-yl)methyl]-2-azaspiro[3.3]heptan-2-yl]-[6-[3-(trifluoromethyl)-1,2,4-triazol-1-yl]-2-azaspiro[3.3]heptan-2-yl]methanone]"
22,0.29 nM,"Cc1cc(C2CC2)n(CC2CC3(C2)CN(C(=O)N2CC4(CC(n5cnc(C6CC6)n5)C4)C2)C3)n1 [Example 132, [6-[(5-cyclopropyl-3-methyl-pyrazol-1-yl)methyl]-2-azaspiro[3.3]heptan-2-yl]-[6-(3-cyclopropyl-1,2,4-triazol-1-yl)-2-azaspiro[3.3]heptan-2-yl]methanone]"
23,4.54 nM,"Cc1cc(C2CC2)n(CC2CC3(C2)CN(C(=O)N2CC4(CC(n5cnc(C6(O)CC6)n5)C4)C2)C3)n1 [Example 133, [6-[(5-cyclopropyl-3-methyl-pyrazol-1-yl)methyl]-2-azaspiro[3.3]heptan-2-yl]-[6-[3-(1-hydroxycyclopropyl)-1,2,4-triazol-1-yl]-2-azaspiro[3.3]heptan-2-yl]methanone]"
24,1.07 nM,"Cc1cc(C2CC2)nn1CC1CC2(C1)CN(C(=O)N1CC3(CC(n4cnc(C(F)(F)F)n4)C3)C1)C2 [Example 134, [6-[(3-cyclopropyl-5-methyl-pyrazol-1-yl)methyl]-2-azaspiro[3.3]heptan-2-yl]-[6-[3-(trifluoromethyl)-1,2,4-triazol-1-yl]-2-azaspiro[3.3]heptan-2-yl]methanone]"
